Tests used:
[1] = target: T1, CAVA (Homo sapiens, UniProt P35218); test: Thermal shift assay (TSA), recombinant CAVA; format: binding; conditions: 37 °C, pH 7.0, observed (not intrinsic)
T1 construct: made in house; host or cells: E. coli
Protocol: (§1) The binding affinities of all fluorescein-containing compounds were determined for all 12 catalytically active CA isozymes by the thermal shift assay (TSA). […] However, the SFA technique cannot determine the affinities lower than the enzyme concentration used in the assay. […] In addition, we used isothermal titration calorimetry (ITC), the standard assay to determine affinity and enthalpy of protein–ligand binding. […] Therefore, ITC was used only to determine the enthalpy of interaction and confirm the ordering of compound affinities.
(§2) All twelve catalytically active human CA isozymes were prepared recombinantly as previously described. Isozymes CAIX, CAXII, and CAXIV were the catalytic domains of the proteins[14],[38]. All isozymes were expressed in E. coli except CAIX that has been prepared in mammalian cells. The proteins were chromatographically purified on ion-exchange or benzene sulfonamide containing affinity columns. Protein MW was confirmed by mass spectrometry with 1 Da precision as predicted from gene sequence.
(§3) Compound affinities for the twelve catalytically active CA isozymes were determined by the thermal shift assay as previously described[30],[39]. Protein solutions containing 1,8-anilinonaphthalenesulfonate fluorescent probe were heated from 25 to 100 °C at a rate of one degree per minute while following the fluorescence of the probe. The temperature scanning curves provided the melting temperature Tm of the protein. The Tm has a distinct dependence on the concentration of a compound. Stronger binders shift the Tm to a greater extent than the weak binders. The Tm dependencies on compound concentration were fit to obtain the affinity Kd[40].

[2] = target: T2, CAXIII (Homo sapiens, UniProt Q8N1Q1); test: Thermal shift assay (TSA), recombinant CAXIII; format: binding; conditions: 37 °C, pH 7.0, observed (not intrinsic)
T2 construct: made in house; host or cells: E. coli

[3] = target: T3, CAII (Homo sapiens, UniProt P00918); test: Thermal shift assay (TSA), recombinant CAII; format: binding; conditions: 37 °C, pH 7.0, observed (not intrinsic)
T3 construct: made in house; host or cells: E. coli
Protocol: as §1, §2, §3

[4] = target: T4, CAIX expressed on HeLa cells (Homo sapiens, UniProt Q16790); test: Fluorescein-labeled compound dosing to hypoxia-grown WT HeLa cells (Morrison single-site model); format: cell-based
T4 construct: recombinant CAIX and endogenous CAIX expressed on the cell surface; endogenous in cells; host or cells: HeLa (WT), grown under hypoxia (1% O2)
Protocol: HeLa cell culture was grown in 12-well plates, either under hypoxia (1% O2) or under normoxia (21% O2), for 70 to 76 h. The medium was removed. Then 200 µL of serially diluted compound (twelve twofold steps) in the FB medium, usually starting at 80 nM (80, 40, 20, …, 0 nM), was added and incubated at 37 ℃ under normoxia in the CO2 incubator for 20 min (2 or 5 min in some experiments where specified). Then the compound solution was removed and the cells were washed 3 times for 1.5–2 min with 400 µL of PBS at RT. Then 180 µL of TrypLe express enzyme (ThermoFisher) was added to each well and incubated in CO2 incubator for 5 min to 10 min until the cells deattached from the surface. After addition of 20 µL of Defined Trypsin Inhibitor solution (ThermoFisher), cells were resuspended by pipetting and 150 µL of the suspension from each well were transferred to black Thermo Scientific™ Nunc MicroWell 96-Well Optical-Bottom Plates for fluorescence and absorbance measurements. The fluorescence was recorded at 485 nm excitation and 520 nm emission wavelengths in the plate reader (Synergy HTX, BioTek). The absorbance was recorded at 650 nm to measure the optical density of the cell suspension.
The compound solution was prepared by weighing 3–5 mg of a purified compound and dissolving in DMSO at 10 mM concentration. The 1 mM compound stock in DMSO was prepared by taking 10 µL of 10 mM stock and adding to 90 µL DMSO. The 10 µM compound stock was prepared by taking 10 µL of 1 mM compound stock in DMSO and adding 990 µL of the FB medium (this stock contained 1% of DMSO). Then 80 nM compound solution was prepared by taking 10 µL of 10 µM solution and adding 1.24 mL of the FB medium and placed to the first Eppendorf tube. Then 300 µL of FB medium were added to the Eppendorf tubes 2 to 12. A serial dilution was performed by taking 300 µL of solution from tube 1 to 2, then from 2 to 3 and so on while mixing vigorously at each step. No solution was transferred to the last tube thus it contained only FB medium and no compound. Then 200 µL from 12 tubes were transferred to the 12 wells of cell culture-containing 12-well plate, starting from the lowest concentration.
Application of fluorescently labeled ligand GZ19-32 to cancer cells expressing CAIX will stain the cells in dose-dependent manner. The fraction of saturation increases from 0 to 1. The fraction of bound GZ19-32 (f) is equal to the molar concentration of bound GZ19-32 per molar concentration of total available CAIX, the so-called total protein Pt . f=GZ19-32bound/Pt
Upon GZ19-32 dosing, the observed fluorescence signal F can be modeled to change from the minimal background signal ( Fmin ) to maximal saturated value ( Fmax ): F=Fmin+Fmax-Fminf […]

[5] = target: T5, catalytic domain of recombinant human CAIX (Homo sapiens, UniProt Q16790); test: Thermal shift assay (TSA), recombinant CAIX catalytic domain; format: binding; conditions: for Kd: TSA, 37 °C, pH 7.0, observed (not intrinsic), read-out: Kd CAIX; for binding to CAIX by TSA (in words): recombinant CAIX
T5 construct: Isozymes CAIX, CAXII, and CAXIV were the catalytic domains of the proteins; made in house; host or cells: mammalian cells

[6] = target: T6, CAXII (Homo sapiens, UniProt O43570); test: Thermal shift assay (TSA), recombinant CAXII; format: binding; conditions: 37 °C, pH 7.0, observed (not intrinsic)
T6 construct: Isozymes CAIX, CAXII, and CAXIV were the catalytic domains of the proteins; made in house; host or cells: E. coli
Protocol: as §1, §2, §3

[7] = target: T7, CAXIV (Homo sapiens, UniProt Q9ULX7); test: Thermal shift assay (TSA), recombinant CAXIV; format: binding; conditions: 37 °C, pH 7.0, observed (not intrinsic)
T7 construct: Isozymes CAIX, CAXII, and CAXIV were the catalytic domains of the proteins; made in house; host or cells: E. coli
T7 sequence (Q9ULX7 20-278 limits assumed): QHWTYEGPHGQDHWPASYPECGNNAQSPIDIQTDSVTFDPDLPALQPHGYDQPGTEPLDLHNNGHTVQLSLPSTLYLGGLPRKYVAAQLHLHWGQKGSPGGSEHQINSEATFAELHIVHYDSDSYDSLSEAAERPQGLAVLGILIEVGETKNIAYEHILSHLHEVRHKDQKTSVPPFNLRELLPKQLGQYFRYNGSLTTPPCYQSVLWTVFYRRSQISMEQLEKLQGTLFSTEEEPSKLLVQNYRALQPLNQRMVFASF

T2 sequence (Q8N1Q1 whole entry): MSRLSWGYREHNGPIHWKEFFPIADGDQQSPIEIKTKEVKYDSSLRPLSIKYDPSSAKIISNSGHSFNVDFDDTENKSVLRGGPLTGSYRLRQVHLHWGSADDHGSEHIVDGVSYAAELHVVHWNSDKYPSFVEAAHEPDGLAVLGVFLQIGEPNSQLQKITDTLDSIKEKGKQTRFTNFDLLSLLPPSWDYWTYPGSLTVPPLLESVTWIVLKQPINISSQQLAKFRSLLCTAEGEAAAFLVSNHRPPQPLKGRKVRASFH
T6 sequence (O43570 30-289 limits assumed): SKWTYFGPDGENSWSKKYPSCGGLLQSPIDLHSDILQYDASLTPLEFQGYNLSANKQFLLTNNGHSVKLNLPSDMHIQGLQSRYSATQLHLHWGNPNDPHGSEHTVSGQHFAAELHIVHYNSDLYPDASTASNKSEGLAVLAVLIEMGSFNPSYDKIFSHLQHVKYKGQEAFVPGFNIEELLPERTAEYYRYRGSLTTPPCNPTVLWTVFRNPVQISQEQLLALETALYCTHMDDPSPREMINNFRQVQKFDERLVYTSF
T1 sequence (P35218 39-305): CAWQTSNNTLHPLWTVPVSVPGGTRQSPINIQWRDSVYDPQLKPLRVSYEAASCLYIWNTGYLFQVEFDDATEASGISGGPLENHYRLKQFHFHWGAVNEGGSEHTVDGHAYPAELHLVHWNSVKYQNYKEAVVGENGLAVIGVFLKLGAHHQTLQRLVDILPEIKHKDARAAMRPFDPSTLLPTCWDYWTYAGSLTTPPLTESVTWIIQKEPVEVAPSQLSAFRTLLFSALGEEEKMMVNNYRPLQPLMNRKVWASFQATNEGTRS

Row | Compound | Kd [1] | Kd [2] | Kd [3] | binding to hypoxia-grown HeLa cells in the nM concentration region ([4]; same conditions as GZ19-32, up to about 100 nM) | Kd [5] | binding to CAIX by TSA (in words) [5] | Kd [6] | Kd [7] | number of bound molecules per HeLa cell ([4]; approximately 80 h of growth under hypoxia) | concentration at which saturation was reached ([4]; hypoxia-grown HeLa cells)
1 | 3-((2-(cyclooctylamino)-3,5,6-trifluoro-4-(methylsulfonyl)phenyl)sulfonyl)-N-(3',6'-dihydroxy-3-oxo-3H-spiro[isobenzofuran-1,9'-xanthen]-5-yl)propanamide and 3-((3-(cyclooctylamino)-2,5,6-trifluoro-4-(methylsulfonyl)phenyl)sulfonyl)-N-(3',6'-dihydroxy-3-oxo-3H-spiro[isobenzofuran-1,9'-xanthen]-5-yl)propanamide [GZ20-37] | > 100000 nM | > 100000 nM | > 100000 nM | did not bind | > 100000 nM | did not show binding | > 100000 nM | > 100000 nM | – | –
2 | NS(=O)(=O)c1c(F)c(F)c(S(=O)(=O)CCC(=O)Nc2ccc3c(c2)C(=O)OC32c3ccc(O)cc3Oc3cc(O)ccc32)c(NC2CCCCCCC2)c1F [GZ19-32, 3-((2-(cyclooctylamino)-3,5,6-trifluoro-4-sulfamoylphenyl)sulfonyl)-N-(3',6'-dihydroxy-3-oxo-3H-spiro[isobenzofuran-1,9'-xanthen]-5-yl)propanamide] | 400 nM | 0.67 nM | 14 nM | – | 0.005 nM | high affinity for CAIX (pM range) | 1.3 nM | 3.3 nM | exceeded 1 million | approximately 10 nM

— PMC9586938, “Picomolar fluorescent probes for compound affinity determination to carbonic anhydrase IX expressed in live cancer cells” (Scientific Reports, 2022)
